From patent publication US10703727B2, “Method for preparing substituted 3-(2-anilino-1-cyclohexyl-1H-benzimidazol-5-yl)propanoic acid derivatives” (Bayer Pharma Aktiengesellschaft, priority 2015, dated 2020)

Assays:
IDH1 R132H [1] = target: T1, IDH1 R132H (Homo sapiens, UniProt O75874, R132H); experiment: Cellular assay: 2-HG in medium of LN229 R132H cells overexpressing mutated IDH; assay type: cell-based; conditions: 24 hours
Experimental: Concentrations of (2R)-2-hydroxyglutarate (2HG) were determined in a medium of a cell line having an overexpession of the mutated isocitrate dehydrogenase protein. mIDH catalyses the NADPH-dependent reduction of alpha-ketoglutarate to 2-HG. […] The cells were obtained using trypsin and placed in 96-well titre plates. The cells were incubated overnight at 37° C. in 5% CO2. On the next day, test compounds were added to the cells. The final concentration of DMSO was 0.1% and DMSO controls were used. The titre plates were then placed in an incubator for 24 hours.
2-HG was measured using the method published by Balss et al. (Acta Neuropathol (2012) 124: 883-891). HClO4 was added to each well and the titre plates were centrifuged. Aliquots were removed and incubated with hydroxyglutarate dehydrogenase (HGDH), diaphorase, NAD+ and resazurin. The conversion of resazurin to resorufin was determined by fluorescence spectroscopy at Ex 540 nm Em 600 nm. The increase in the fluorescence signal is proportional to formation of 2-HG. IC50 values were determined by interpolation from plots of the relative fluorescence against the inhibitor concentration.

IDH1 R132H [2] = target: T1, IDH1 R132H; experiment: Inhibition of IDH1 R132H in a biochemical assay (NADPH consumption, luminescence); conditions: 1.5 nM enzyme, 1 μM NADPH, 250 μM α-KG, 32° C., 30 minutes
Experimental: NADPH consumption is determined by luminescence.
Test compounds were assayed in a concentration range of 0.002 to 10 μM. The final DMSO concentration was 2.4%.
The luminescence was determined using a luminescence reader (10 seconds measurement time, 1 second integration period, 30% sensitivity). The drop in luminescence is proportional to the activity of mIDH1. IC50 values were determined by interpolation from plots of the relative luminescence against the inhibitor concentration.

T1 sequence (O75874 whole entry R132H): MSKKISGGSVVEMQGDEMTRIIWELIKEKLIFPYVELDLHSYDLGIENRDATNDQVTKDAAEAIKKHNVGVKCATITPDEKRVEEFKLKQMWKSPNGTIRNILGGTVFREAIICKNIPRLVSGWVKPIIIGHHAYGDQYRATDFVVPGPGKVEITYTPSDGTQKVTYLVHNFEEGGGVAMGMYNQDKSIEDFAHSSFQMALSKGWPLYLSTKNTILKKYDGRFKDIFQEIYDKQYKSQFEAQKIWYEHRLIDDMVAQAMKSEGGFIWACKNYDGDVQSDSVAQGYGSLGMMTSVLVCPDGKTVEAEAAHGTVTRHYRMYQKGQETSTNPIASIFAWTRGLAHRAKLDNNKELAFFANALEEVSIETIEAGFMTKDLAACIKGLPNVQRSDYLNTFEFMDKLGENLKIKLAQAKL

An IC50 (IDH1 R132H [1]) of 850 nM and an IC50 (IDH1 R132H [2]) of 300 nM were found for `CC(C)Oc1ccc(Nc2nc3cc(CCC(=O)O)ccc3n2C2CCCC(C)(C)C2)cc1` (racemic) [(±) 3-(1-[3,3-Dimethylcyclohexyl]-2-{[4-(propan-2-yloxy)phenyl]amino}-1H-benzimidazol-5-yl)propanoic acid] in this work.

An IC50 (IDH1 R132H [1]) of 400 nM and an IC50 (IDH1 R132H [2]) of 60 nM were found for `CC(C)Oc1ccc(Nc2nc3cc(CCC(=O)O)ccc3n2[C@H]2C[C@@H](C)CC(C)(C)C2)cc1` (racemic) [(±) 3-(2-{[4-(Propan-2-yloxy)phenyl]amino}-1-[(cis)-3,3,5-trimethylcyclohexyl]-1H-benzimidazol-5-yl)propanoic acid] in this work.

An IC50 (IDH1 R132H [1]) of 70 nM and an IC50 (IDH1 R132H [2]) of 40 nM were found for `C[C@@H]1C[C@H](n2c(Nc3ccc(C(F)(F)F)cc3)nc3cc(CCC(=O)O)ccc32)CC(C)(C)C1` (racemic) [(±) 3-(2-{[4-(Trifluoromethyl)phenyl]amino}-1-[(cis)-3,3,5-trimethylcyclohexyl]-1H-benzimidazol-5-yl)propanoic acid] in this work.

An IC50 (IDH1 R132H [1]) of 300 nM and an IC50 (IDH1 R132H [2]) of 300 nM were found for `COC(=O)CCc1ccc2c(c1)nc(Nc1ccc(OC(F)(F)F)cc1)n2[C@H]1C[C@@H](C)CC(C)(C)C1` (racemic) [(±) Methyl 3-(2-{[4-(trifluoromethoxy)phenyl]amino}-1-[(cis)-3,3,5-trimethylcyclohexyl]-1H-benzimidazol-5-yl)propanoate] in this work.

An IC50 (IDH1 R132H [1]) of 90 nM and an IC50 (IDH1 R132H [2]) of 170 nM were found for `COC(=O)CCc1ccc2c(c1)nc(Nc1ccc(C(C)C)cc1)n2[C@H]1C[C@@H](C)CC(C)(C)C1` (racemic) [(±) Methyl 3-(2-{[4-(propan-2-yl)phenyl]amino}-1-[(cis)-3,3,5-trimethylcyclohexyl]-1H-benzimidazol-5-yl)propanoate] in this work.

An IC50 (IDH1 R132H [1]) of 850 nM and an IC50 (IDH1 R132H [2]) of 60 nM were found for `CC1(C)CCCC(n2c(Nc3ccc(OC(F)(F)F)cc3)nc3cc(CCC(=O)O)ccc32)C1` (racemic) [(±) 3-(1-[3,3-dimethylcyclohexyl]-2-{[4-(trifluoromethoxy)phenyl]amino}-1H-benzimidazol-5-yl)propanoic acid] in this work.

An IC50 (IDH1 R132H [1]) of 400 nM and an IC50 (IDH1 R132H [2]) of 50 nM were found for `CC(C)c1ccc(Nc2nc3cc(CCC(=O)O)ccc3n2C2CCCC(C)(C)C2)cc1` (racemic) [(±) 3-(1-[3,3-Dimethylcyclohexyl]-2-{[4-(propan-2-yl)phenyl]amino}-1H-benzimidazol-5-yl)propanoic acid] in this work.

An IC50 (IDH1 R132H [1]) of 80 nM and an IC50 (IDH1 R132H [2]) of 20 nM were found for `CC(C)c1ccc(Nc2nc3cc(CCC(=O)O)ccc3n2[C@H]2C[C@@H](C)CC(C)(C)C2)cc1` (racemic) [(±) 3-(2-{[4-(Propan-2-yl)phenyl]amino}-1-[(cis)-3,3,5-trimethylcyclohexyl]-1H-benzimidazol-5-yl)propanoic acid] in this work.
